Data reported in article PMC12693701, “Glucosinolate-Derived Metabolites from Barbarea vulgaris (Brassicaceae): Evaluation of Antimicrobial, Antioxidant, and Anti-Inflammatory Potentials” (Molecules, 2025).
In brackets after ≈: the same amount, converted by molar mass. Where two headings read alike, the source gives them in different places.

What was measured:
tested bacterial strains = test: Microdilution MIC, summary over tested bacterial strains; assay type: cell-based; conditions: for MIC values, range over bacterial strains: all tested bacteria; for MIC: read-out: MIC against E. coli ATCC 25922 and S. aureus ATCC 25923 (abstract)
Experimental: (§1) The antimicrobial activity was evaluated against 15 microorganisms. This included 11 bacterial strains: four standard strains (Staphylococcus aureus ATCC 25923, Bacillus subtilis ATCC 6633, Bacillus pumilus NCTC 8241, and Escherichia coli ATCC 25922) and six clinical or environmental isolates (Staphylococcus aureus, Escherichia coli, Bacillus cereus, Proteus mirabilis, Salmonella enterica, and Klebsiella pneumoniae). One probiotic strain, Bifidobacterium animalis subsp. lactis was tested. In addition, four fungal strains, Candida albicans ATCC 10231, Trichoderma viride ATCC 13233, Aspergillus flavus ATCC 9170, and Fusarium solani ATCC 11712 were tested. The bacterial strains were kept in glycerol stock at −80 °C and the fungal strains in paraffin oil stock at 4 °C.
(§2) Bacterial and yeast suspensions were prepared using the direct colony method, as previously described by Andrews. The turbidity of the initial suspensions was adjusted to match the 0.5 McFarland standard using a densitometer (Biosan, Riga, Latvia), corresponding to approximately 10^8 colony-forming units (CFU)/mL for bacterial cells and 10^6 CFU/mL for yeast cells. Subsequently, 1:100 dilutions of the initial suspensions were prepared in sterile 0.85% saline. Fungal spore suspensions were obtained by gently harvesting spores from agar slopes containing mature mycelial growth. The collected spore suspensions were then diluted 1:1000 in sterile 0.85% saline prior to use.
(§3) Antimicrobial activity was evaluated by determining the minimum inhibitory concentration (MIC) and minimum microbicidal concentration (MMC) using the microdilution plate method with resazurin as an indicator [28]. In the 96-well plates, 100 μL of Mueller–Hinton broth (Torlak, Belgrade, Serbia) for bacterial testing and Sabouraud broth (Torlak, Belgrade, Serbia) for fungal testing were dispensed into each well. The compounds under investigation were initially dissolved in a 10% dimethyl sulfoxide (DMSO) solution, followed by dilution in sterile distilled water, resulting in a working compound solution containing 1% DMSO. A 100 μL aliquot of the stock solution of the tested compound was added to the first row, and twofold serial dilutions were then carried out using a multichannel pipette. The resulting concentration range was from 5 to 0.039 mg/mL. The inoculated microtiter plates were incubated at 37 °C for 24 h for bacteria, at 28 °C for 48 h for yeasts, and at 28 °C for 72 h for molds.
(§4) Each test also included growth control and sterility control. All tests were conducted in duplicate. MIC was defined as the lowest concentration of tested compounds that prevented resazurin color change from blue to pink. For molds, MIC values of the tested compound were determined as the lowest concentration that inhibited visible mycelia growth. MMC was determined by inoculation of the nutrient agar medium by plating […] of samples from wells, where no indicator color change was recorded. At the end of the incubation period, the lowest concentration with no growth (no colony) was defined as MMC.

T. viride ATCC 13233 = test: Microdilution MIC/MMC; assay type: cell-based, Trichoderma viride
Experimental: as §1, §2, §3, §4
(§5) Doxycycline, ampicillin and amphotericin B (- Sigma-Aldrich, St. Louis, MO, USA) and ketoconazole (Hemofarm A.D., Vršac, Serbia) were dissolved in a nutrient liquid medium. Doxycycline is a broad-spectrum antibiotic effective against both aerobic and anaerobic Gram-positive and Gram-negative bacteria. Ampicillin, a beta-lactam antibiotic, primarily targets Gram-positive bacteria but also some Gram-negative strains. Amphotericin B is an antifungal drug often used for serious systemic fungal infections and is one of the effective treatments for fungal infections caused by Aspergillus sp. Ketoconazole is an antifungal agent used to inhibit the growth of Candida species.

S. aureus ATCC 25923 = test: Inhibition of biofilm formation (crystal violet); assay type: cell-based, Staphylococcus aureus; conditions: for BIC50: biofilm coverage reduced by 50%; for BIC90: biofilm coverage reduced by 90%
Experimental: (§6) The procedure involved preparing 96-well microtiter plates (Sarstedt, Nümbrecht, Germany) by adding 100 μL of Mueller-Hinton nutrient broth to each well. A 10 μL aliquot of bacterial suspension (adjusted to 1.0 McFarland for Gram-positive bacteria and 0.5 McFarland for Gram-negative bacteria) was added to the wells. The plates were then incubated at 37 °C for 48 h to allow biofilm formation. After incubation, the wells were washed twice with 200 μL of sterile 0.85% saline to remove non-adherent and weakly adherent cells. Biofilms formed by the adherent bacteria were fixed with 100 μL of methanol until fully evaporated. The biofilms were then stained using 0.1% (w/v) crystal violet (Fluka Chemie AG, Buchs, Switzerland) and left at room temperature for 20 min. After staining, excess dye was washed off with deionized water, followed by 96% ethanol. Controls included wells containing only nutrient broth to check for sterility and nonspecific binding. Background absorbance from the sterile medium, fixative, and dye was subtracted from the OD readings of the test samples. All experiments were performed in triplicate.
(§7) To assess the inhibition of biofilm formation, 96-well microtiter plates (Sarstedt, Nümbrecht, Germany) were prepared by dispensing 100 μL of Mueller-Hinton broth into each well. From stock solutions of tested compounds (at 10 mg/mL), 100 μL was added to the first row of the plate, followed by twofold serial dilutions (from 5 to 0.039 mg/mL) using a multichannel pipette (Eppendorf AG, Hamburg, Germany). Subsequently, 10 μL of fresh bacterial suspension (adjusted to 0.5 McFarland for Gram-negative and 1.0 McFarland for Gram-positive bacteria) was added to each well. The plates were incubated at 37 °C for 48 h. After incubation, the contents of the wells were carefully removed by tapping, and the remainder of the experiment was conducted following the procedure described above.
(§8) Controls consisted of wells containing only broth or broth with the tested compounds to assess sterility and nonspecific binding. Background absorbance was subtracted from test readings as described earlier. All experiments were performed in triplicate, and tetracycline (Sigma-Aldrich, St. Louis, MO, USA), dissolved in nutrient broth, was used as a reference compound.

K. pneumoniae = test: Inhibition of biofilm formation (crystal violet); assay type: cell-based, Klebsiella pneumoniae; conditions: for BIC50: biofilm coverage reduced by 50%; for BIC90: biofilm coverage reduced by 90%
Experimental: as §6, §7, §8

S. enterica [1] = test: Microdilution MIC/MMC with resazurin; assay type: cell-based, Salmonella enterica; conditions: compounds 1–8; for MIC: Salmonella enterica
Experimental: as §1, §2, §3, §4, §5

B. pumilus NCTC 8241 = test: Microdilution MIC/MMC with resazurin; assay type: cell-based, Bacillus pumilus; conditions: for MIC: Bacillus pumilus, NCTC8241
Experimental: as §1, §2, §3, §4, §5

P. mirabilis = test: Inhibition of biofilm formation (crystal violet); assay type: cell-based, Proteus mirabilis; conditions: for BIC50: biofilm coverage reduced by 50%; for BIC90: biofilm coverage reduced by 90%
Experimental: as §6, §7, §8

S. enterica [2] = test: Inhibition of biofilm formation (crystal violet); assay type: cell-based, Salmonella enterica; conditions: for BIC50: biofilm coverage reduced by 50%; for BIC90: biofilm coverage reduced by 90%
Experimental: as §6, §7, §8

B. subtilis ATCC 6633 = test: Inhibition of biofilm formation (crystal violet); assay type: cell-based, Bacillus subtilis; conditions: for BIC50: biofilm coverage reduced by 50%; for BIC90: biofilm coverage reduced by 90%
Experimental: as §6, §7, §8

[3] = T. viride ATCC 13233, compounds 1–8
[4] = Trichoderma viride, ATCC13233, T. viride ATCC 13233, compounds 1–8, read-out: MIC
[5] = B. pumilus NCTC 8241, compounds 1–8
[6] = B. pumilus NCTC 8241, compounds 1–8, read-out: MIC

| SMILES | MMC (T. viride ATCC 13233; [3]) [mg/mL] | MIC (T. viride ATCC 13233; [4]) [µg/mL] | BIC50 (S. aureus ATCC 25923) [µg/mL] | BIC90 (S. aureus ATCC 25923) [µg/mL] | BIC50 (K. pneumoniae) [µg/mL] | BIC90 (K. pneumoniae) [µg/mL] | MIC (S. enterica [1]) [µg/mL] | MMC (S. enterica [1]) [mg/mL] | MMC (B. pumilus NCTC 8241; [5]) [mg/mL] | MIC (B. pumilus NCTC 8241; [6]) [µg/mL] | BIC50 (P. mirabilis) [µg/mL] | BIC90 (P. mirabilis) [µg/mL] | BIC50 (S. enterica [2]) [µg/mL] | BIC90 (S. enterica [2]) [µg/mL] | BIC50 (B. subtilis ATCC 6633) [µg/mL] | BIC90 (B. subtilis ATCC 6633) [µg/mL] | further results |
| --- | --- | --- | --- | --- | --- | --- | --- | --- | --- | --- | --- | --- | --- | --- | --- | --- | --- |
| S=C1NCC(c2ccccc2)O1 (racemic) [Compound 4, rac-5-Phenyl-1,3-oxazolidine-2-thione] | 2.5 | 2500 (≈ 13.9 mM) | 1500 | >5000 | 3978 | >5000 | 2500 (≈ 13.9 mM) | 5 | 2.5 | 1250 (≈ 6.97 mM) | 3170 | >5000 | 1000 | 4470 | 2700 | >5000 | MIC values, range over bacterial strains (tested bacterial strains): 1250 to 5000 µg/mL |
| CSC(=S)NCCc1ccccc1 [Compound 1, Methyl phenethylcarbamodithioate] | 1.25 | 625 (≈ 2.96 mM) | – | – | – | – | 5000 (≈ 23.7 mM) | 5 | 2.5 | 1250 (≈ 5.91 mM) | – | – | – | – | – | – | MIC values, range over bacterial strains (tested bacterial strains): 1250 to 5000 µg/mL |
| CSC(=S)NCCc1ccc(O)cc1 [Compound 2, methyl-4-hydroxyphenylethyl dithiocarbamate] | 0.312 | 156 (≈ 0.686 mM) | 220 | 2120 | 580 | 3600 | 625 (≈ 2.75 mM) | – | 0.156 | 156 (≈ 0.686 mM) | 1158 | 4500 | 1100 | 3200 | 290 | 1250 | MIC (tested bacterial strains): 312 to 1250 µg/mL (≈ 1.37 to 5.5 mM) |
| O=C(O)C1CSC(=S)N1 (stereo not shown) [Compound 3, 2-Thioxothiazolidine-4-carboxylic Acid] | 5 | 2500 (≈ 15.3 mM) | 2500 | >5000 | 1262 | >5000 | 2500 (≈ 15.3 mM) | 2.5 | 0.625 | 625 (≈ 3.83 mM) | 3420 | >5000 | 2400 | >5000 | 1190 | 2500 | – |
| S=C1NC[C@H](c2ccccc2)O1 [Compound 5, (S)-5-phenyl-1,3-oxazolidine-2-thione] | 5 | 5000 (≈ 27.9 mM) | – | – | – | – | 5000 (≈ 27.9 mM) | >5 | 5 | 2500 (≈ 13.9 mM) | – | – | – | – | – | – | – |
| O=C1NCC(c2ccccc2)S1 (stereo not shown) [Compound 6, 5-phenyl-1,3-thiazolidin-2-one] | >5 | > 5000 | – | – | – | – | > 5000 | >5 | >5 | > 5000 | – | – | – | – | – | – | antibacterial activity (in words) (tested bacterial strains; tested concentrations 5 to 0.039 mg/mL): no detectable antibacterial activity |
| O=C1NCC(c2ccccc2)O1 (stereo not shown) [Compound 7, 5-Phenyl-1,3-oxazolidin-2-one] | 2.5 | 1250 (≈ 7.66 mM) | >5000 | >5000 | 4400 | >5000 | 1250 (≈ 7.66 mM) | 2.5 | 5 | 5000 (≈ 30.6 mM) | 3100 | 4754 | 1254 | >5000 | >5000 | >5000 | – |
| Oc1ccc(CCN=C=S)cc1 [Compound 8, 2-(4-hydroxyphenyl)ethyl isothiocyanate] | <0.039 | – | 868 | 1360 | 570 | 2000 | 312 (≈ 1.74 mM) | 1.25 | 0.156 | – | 1428 | 2400 | 1547 | >5000 | 1100 | 2300 | MIC (tested bacterial strains): 312 to 1250 µg/mL (≈ 1.74 to 6.97 mM); MIC (T. viride ATCC 13233; [3]): <39 µg/mL; MIC (T. viride ATCC 13233; Trichoderma viride, ATCC13233): < 39 µg/mL; MIC (B. pumilus NCTC 8241): 156 µg/mL (≈ 0.87 mM) |
